Like-named read-outs stand apart in the source and are kept apart here.
Experiments:
[1] = system: wheat; assay: Test A pre-/postemergence herbicide test; format: in vivo, Triticum aestivum; conditions: for Wheat plant response rating: Preemergence, visual rating on 0 to 100 scale (0 no effect, 100 complete control); for Wheat plant response rating / plant injury at 125 g/ha: 125 g ai/ha; for plant injury at 125 g/ha / plant injury at 500 g/ha: Triticum aestivum, 240 h, read-out: Plant response rating, Wheat; for plant injury at 125 g/ha: 0 no effect, 100 complete control; for plant injury at 500 g/ha: 500 g ai/ha
How it was run: (§1)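 Directed soil spray to seeded pots (preemergence) or spray onto one- to two-leaf seedlings 2–10 cm tall (postemergence); loam/sand substrate throughout. Evaluated visually after about 10 days against untreated plants, 0 = no effect, 100 = complete control.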

[2] = system: blackgrass; assay: Test C pre-/postemergence herbicide test; format: in vivo, Alopecurus myosuroides; conditions: for Blackgrass plant response rating: scale 0 to 100, 0 is no effect and 100 is complete control
How it was run: (§2)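 Two application timings ran in parallel with identically formulated test chemicals (non-phytotoxic solvent, surfactant included): spray on seeded loam–sand soil, and spray on emerged plants 2 to 18 cm high. Evaluation at 13 to 15 days compared each species with controls, rated from 0 up to 100.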

[3] = system: galium; assay: Test C pre-/postemergence herbicide test; format: in vivo, Galium aparine; conditions: for Galium plant response rating: scale 0 to 100, 0 is no effect and 100 is complete control
How it was run: as §2

[4] = system: nutsedge, yellow; assay: Test C pre-/postemergence herbicide test; format: in vivo, Cyperus esculentus; conditions: for Nutsedge, Yellow plant response rating: scale 0 to 100, 0 is no effect and 100 is complete control
How it was run: as §2

[5] = system: morningglory; assay: Test C pre-/postemergence herbicide test; format: in vivo, Ipomoea coccinea; conditions: for Morningglory plant response rating: scale 0 to 100, 0 is no effect and 100 is complete control
How it was run: as §2

[6] = system: pigweed; assay: Test A pre-/postemergence herbicide test; format: in vivo, Amaranthus retroflexus; conditions: for pest or weed control at 125 g/ha / pest or weed control at 500 g/ha: Amaranthus retroflexus, 240 h, read-out: Plant response rating, Pigweed; for pest or weed control at 125 g/ha / Pigweed plant response rating: 125 g ai/ha; for pest or weed control at 125 g/ha: 0 no effect, 100 complete control; for pest or weed control at 500 g/ha: 500 g ai/ha; for Pigweed plant response rating: Preemergence, visual rating on 0 to 100 scale (0 no effect, 100 complete control)
How it was run: as §1

[7] = system: ryegrass, Italian; assay: Test C pre-/postemergence herbicide test; format: in vivo, Lolium multiflorum; conditions: for Ryegrass, Italian plant response rating: scale 0 to 100, 0 is no effect and 100 is complete control
How it was run: as §2

[8] = system: corn; assay: Test C pre-/postemergence herbicide test; format: in vivo, Zea mays; conditions: for Corn plant response rating: scale 0 to 100, 0 is no effect and 100 is complete control
How it was run: as §2

[9] = system: barnyardgrass; assay: Test C pre-/postemergence herbicide test; format: in vivo, Echinochloa crus-galli; conditions: for Barnyardgrass plant response rating: scale 0 to 100, 0 is no effect and 100 is complete control
How it was run: as §2

[10] = system: velvetleaf; assay: Test C pre-/postemergence herbicide test; format: in vivo, Abutilon theophrasti; conditions: for Velvetleaf plant response rating: scale 0 to 100, 0 is no effect and 100 is complete control
How it was run: as §2

[11] = post-emergence, Postemergence, 0 to 100 scale
[12] = post-emergence, Postemergence, 0 to 100 scale (0 no effect, 100 complete control)
[13] = pre-emergence, preemergence, 0 to 100 scale
[14] = Postemergence, 31 g ai/ha, scale 0 (no effect) to 100 (complete control)
[15] = Postemergence, 62 g ai/ha, scale 0 to 100 (0 no effect, 100 complete control)
[16] = Postemergence, 125 g ai/ha, scale 0 to 100 (0 no effect, 100 complete control)
[17] = Postemergence, 250 g ai/ha, scale 0 to 100 (0 no effect, 100 complete control)
[18] = Preemergence, 62 g ai/ha, scale 0 to 100
[19] = Preemergence, 125 g ai/ha, scale 0 to 100 (0 no effect, 100 complete control)

SMILES: O=C1NCC(c2ccc(C(F)(F)F)cc2)C1C(=O)Nc1ccccc1F (stereo not shown) [Compound 79, N-(2-fluorophenyl)-2-oxo-4-[4-(trifluoromethyl)phenyl]-3-pyrrolidinecarboxamide]
- Wheat plant response rating [1]: 0
- plant injury at 125 g/ha [1, 11]: 30%
- plant injury at 500 g/ha [1, 12]: 50%
- plant injury at 500 g/ha [1, 13]: 20%
- Plant response rating, Blackgrass [2, 14]: 0
- Plant response rating, Blackgrass [2, 15]: 0
- Plant response rating, Blackgrass [2, 16]: 0
- Plant response rating, Blackgrass [2, 17]: 5
- Blackgrass plant response rating ([2]; Preemergence, 31 g ai/ha): 0
- Plant response rating, Blackgrass [2, 18]: 65
- Plant response rating, Blackgrass [2, 19]: 85
- Plant response rating (scale of 0 to 100), Blackgrass ([2]; Preemergence, 250 g ai/ha): 85
- Plant response rating, Galium [3, 14]: 30
- Plant response rating, Galium [3, 15]: 60
- Plant response rating, Galium [3, 16]: 60
- Galium plant response rating ([3]; Preemergence, 31 g ai/ha): 0
- Plant response rating, Galium [3, 18]: 5
- Plant response rating, Galium [3, 19]: 85
- Plant response rating (scale of 0 to 100), Galium ([3]; Preemergence, 250 g ai/ha): 90
- Plant response rating, Nutsedge, Yellow [4, 14]: 0
- Plant response rating, Nutsedge, Yellow [4, 15]: 0
- Plant response rating, Nutsedge, Yellow [4, 16]: 0
- Plant response rating, Nutsedge, Yellow [4, 17]: 0
- Nutsedge, Yellow plant response rating ([4]; Preemergence, 31 g ai/ha): 0
- Plant response rating, Nutsedge, Yellow [4, 18]: 0
- Plant response rating, Nutsedge, Yellow [4, 19]: 0
- Plant response rating (scale of 0 to 100), Nutsedge, Yellow ([4]; Preemergence, 250 g ai/ha): 0
- Plant response rating, Morningglory [5, 14]: 0
- Plant response rating, Morningglory [5, 15]: 0
- Plant response rating, Morningglory [5, 16]: 5
- Plant response rating, Morningglory [5, 17]: 5
- Morningglory plant response rating ([5]; Preemergence, 31 g ai/ha): 0
- Plant response rating, Morningglory [5, 18]: 0
- Plant response rating, Morningglory [5, 19]: 0
- Plant response rating (scale of 0 to 100), Morningglory ([5]; Preemergence, 250 g ai/ha): 0
- pest or weed control at 125 g/ha [6, 11]: 70%
- pest or weed control at 500 g/ha [6, 12]: 70%
- pest or weed control at 500 g/ha [6, 13]: 80%
- Pigweed plant response rating [6]: 80
- Plant response rating, Ryegrass, Italian [7, 14]: 0
- Plant response rating, Ryegrass, Italian [7, 15]: 0
- Plant response rating, Ryegrass, Italian [7, 16]: 0
- Plant response rating, Ryegrass, Italian [7, 17]: 0
- Ryegrass, Italian plant response rating ([7]; Preemergence, 31 g ai/ha): 0
- Plant response rating, Ryegrass, Italian [7, 18]: 5
- Plant response rating, Ryegrass, Italian [7, 19]: 30
- Plant response rating (scale of 0 to 100), Ryegrass, Italian ([7]; Preemergence, 250 g ai/ha): 30
- Plant response rating, Corn [8, 14]: 0
- Plant response rating, Corn [8, 15]: 0
- Plant response rating, Corn [8, 16]: 0
- Plant response rating, Corn [8, 17]: 0
- Corn plant response rating ([8]; Preemergence, 31 g ai/ha): 0
- Plant response rating, Corn [8, 18]: 0
- Plant response rating, Corn [8, 19]: 10
- Plant response rating (scale of 0 to 100), Corn ([8]; Preemergence, 250 g ai/ha): 30
- Plant response rating, Barnyardgrass [9, 14]: 0
- Plant response rating, Barnyardgrass [9, 15]: 0
- Plant response rating, Barnyardgrass [9, 16]: 35
- Plant response rating, Barnyardgrass [9, 17]: 60
- Barnyardgrass plant response rating ([9]; Preemergence, 31 g ai/ha): 40
- Plant response rating, Barnyardgrass [9, 18]: 95
- Plant response rating, Barnyardgrass [9, 19]: 95
- Plant response rating (scale of 0 to 100; 0 is no effect, 100 is complete control), Barnyardgrass ([9]; Preemergence, 250 g ai/ha): 98
- Plant response rating, Velvetleaf [10, 14]: 0
- Plant response rating, Velvetleaf [10, 15]: 0
- Plant response rating, Velvetleaf [10, 16]: 0
- Plant response rating, Velvetleaf [10, 17]: 0
- Velvetleaf plant response rating ([10]; Preemergence, 31 g ai/ha): 0
- Plant response rating, Velvetleaf [10, 18]: 0
- Plant response rating, Velvetleaf [10, 19]: 20
- Plant response rating (scale of 0 to 100), Velvetleaf ([10]; Preemergence, 250 g ai/ha): 35

SMILES: O=C1NCC(c2ccc(C(F)(F)F)cc2)C1C(=O)Nc1cccc(F)c1F (stereo not shown) [Compound 80, N-(2,3-difluorophenyl)-2-oxo-4-[4-(trifluoromethyl)phenyl]-3-pyrrolidinecarboxamide]
- Wheat plant response rating [1]: 0
- plant injury at 125 g/ha [1, 11]: 40%
- plant injury at 500 g/ha [1, 12]: 50%
- plant injury at 500 g/ha [1, 13]: 20%
- Plant response rating, Blackgrass [2, 14]: 0
- Plant response rating, Blackgrass [2, 15]: 0
- Plant response rating, Blackgrass [2, 16]: 0
- Plant response rating, Blackgrass [2, 17]: 5
- Blackgrass plant response rating ([2]; Preemergence, 31 g ai/ha): 30
- Plant response rating, Blackgrass [2, 18]: 80
- Plant response rating, Blackgrass [2, 19]: 85
- Plant response rating (scale of 0 to 100), Blackgrass ([2]; Preemergence, 250 g ai/ha): 90
- Plant response rating, Galium [3, 14]: 5
- Plant response rating, Galium [3, 15]: 55
- Plant response rating, Galium [3, 16]: 65
- Plant response rating, Galium [3, 17]: 65
- Galium plant response rating ([3]; Preemergence, 31 g ai/ha): 5
- Plant response rating, Galium [3, 18]: 90
- Plant response rating, Galium [3, 19]: 90
- Plant response rating (scale of 0 to 100), Galium ([3]; Preemergence, 250 g ai/ha): 90
- Plant response rating, Nutsedge, Yellow [4, 14]: 0
- Plant response rating, Nutsedge, Yellow [4, 15]: 0
- Plant response rating, Nutsedge, Yellow [4, 16]: 0
- Plant response rating, Nutsedge, Yellow [4, 17]: 0
- Nutsedge, Yellow plant response rating ([4]; Preemergence, 31 g ai/ha): 0
- Plant response rating, Nutsedge, Yellow [4, 18]: 0
- Plant response rating, Nutsedge, Yellow [4, 19]: 0
- Plant response rating (scale of 0 to 100), Nutsedge, Yellow ([4]; Preemergence, 250 g ai/ha): 10
- Plant response rating, Morningglory [5, 14]: 0
- Plant response rating, Morningglory [5, 15]: 5
- Plant response rating, Morningglory [5, 16]: 5
- Plant response rating, Morningglory [5, 17]: 5
- Morningglory plant response rating ([5]; Preemergence, 31 g ai/ha): 0
- Plant response rating, Morningglory [5, 18]: 0
- Plant response rating, Morningglory [5, 19]: 20
- Plant response rating (scale of 0 to 100), Morningglory ([5]; Preemergence, 250 g ai/ha): 20
- pest or weed control at 125 g/ha [6, 11]: 60%
- pest or weed control at 500 g/ha [6, 12]: 70%
- pest or weed control at 500 g/ha [6, 13]: 80%
- Pigweed plant response rating [6]: 60
- Plant response rating, Ryegrass, Italian [7, 14]: 0
- Plant response rating, Ryegrass, Italian [7, 15]: 0
- Plant response rating, Ryegrass, Italian [7, 16]: 0
- Plant response rating, Ryegrass, Italian [7, 17]: 0
- Ryegrass, Italian plant response rating ([7]; Preemergence, 31 g ai/ha): 0
- Plant response rating, Ryegrass, Italian [7, 18]: 40
- Plant response rating, Ryegrass, Italian [7, 19]: 40
- Plant response rating (scale of 0 to 100), Ryegrass, Italian ([7]; Preemergence, 250 g ai/ha): 45
- Plant response rating, Corn [8, 14]: 0
- Plant response rating, Corn [8, 15]: 5
- Plant response rating, Corn [8, 16]: 5
- Plant response rating, Corn [8, 17]: 10
- Corn plant response rating ([8]; Preemergence, 31 g ai/ha): 0
- Plant response rating, Corn [8, 18]: 0
- Plant response rating, Corn [8, 19]: 0
- Plant response rating (scale of 0 to 100), Corn ([8]; Preemergence, 250 g ai/ha): 65
- Plant response rating, Barnyardgrass [9, 14]: 0
- Plant response rating, Barnyardgrass [9, 15]: 20
- Plant response rating, Barnyardgrass [9, 16]: 35
- Plant response rating, Barnyardgrass [9, 17]: 70
- Barnyardgrass plant response rating ([9]; Preemergence, 31 g ai/ha): 85
- Plant response rating, Barnyardgrass [9, 18]: 95
- Plant response rating, Barnyardgrass [9, 19]: 95
- Plant response rating (scale of 0 to 100; 0 is no effect, 100 is complete control), Barnyardgrass ([9]; Preemergence, 250 g ai/ha): 95
- Plant response rating, Velvetleaf [10, 14]: 15
- Plant response rating, Velvetleaf [10, 15]: 15
- Plant response rating, Velvetleaf [10, 17]: 25
- Velvetleaf plant response rating ([10]; Preemergence, 31 g ai/ha): 0
- Plant response rating, Velvetleaf [10, 18]: 30
- Plant response rating, Velvetleaf [10, 19]: 35
- Plant response rating (scale of 0 to 100), Velvetleaf ([10]; Preemergence, 250 g ai/ha): 50

Reference: patent US10294202B2, “Pyrrolidinones as herbicides” (FMC Corporation, priority 2013, dated 2019)
